# Test results reported in patent publication US8124778B2, “Tricyclic inhibitors of fatty acid amide hydrolase” (The Scripps Research Institute, priority 2007, dated 2012).
# Biological target: T1, purified recombinant rat FAAH (Rattus norvegicus, UniProt P97612)
# T1 construct: The truncated rat FAAH (rFAAH) was expressed in E. coli and purified as described; made in house; host or cells: E. coli
# T1 sequence (P97612 30-579 limits assumed): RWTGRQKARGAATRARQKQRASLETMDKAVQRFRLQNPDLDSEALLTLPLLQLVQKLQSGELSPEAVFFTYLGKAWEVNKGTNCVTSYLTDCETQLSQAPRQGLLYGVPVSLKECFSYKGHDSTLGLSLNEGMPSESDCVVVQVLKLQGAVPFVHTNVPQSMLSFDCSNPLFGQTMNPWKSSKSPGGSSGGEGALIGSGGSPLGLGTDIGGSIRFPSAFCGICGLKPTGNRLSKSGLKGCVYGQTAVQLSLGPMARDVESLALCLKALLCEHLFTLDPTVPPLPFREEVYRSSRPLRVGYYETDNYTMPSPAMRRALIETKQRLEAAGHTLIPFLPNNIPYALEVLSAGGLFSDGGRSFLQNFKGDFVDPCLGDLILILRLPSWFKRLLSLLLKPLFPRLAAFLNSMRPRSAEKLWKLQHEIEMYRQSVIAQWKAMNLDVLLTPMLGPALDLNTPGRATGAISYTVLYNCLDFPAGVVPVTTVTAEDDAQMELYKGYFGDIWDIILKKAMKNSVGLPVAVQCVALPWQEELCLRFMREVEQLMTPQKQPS
# Test: FAAH inhibition enzyme assay (14C-oleamide hydrolysis, Dixon plot)
# Format: biochemical
# Conditions: rat FAAH
# Method: Enzyme assays were performed at 20-23° C. with purified recombinant rat FAAH expressed in E. coli (Patricelli, M. P.; Lashuel, H. A.; et al. Biochemistry 1998, 37, 15177-15187) (unless indicated otherwise) or with solubilized COS-7 membrane extracts from cells transiently transfected with human FAAH cDNA (Giang, D. K.; Cravatt, B. F. Proc. Natl. Acad. Sci. U.S.A. 1997, 94, 2238-2242) (where specifically indicated) in a buffer of 125 mM Tris/1 mM EDTA/0.2% glycerol/0.02% Triton X-100/0.4 mM Hepes, pH 9.0 buffer (Patricelli, M. P.; Patterson, J. P.; et al. Bioorg. Med. Chem. Lett. 1998, 8, 613-618). The initial rates of hydrolysis (≦10-20% reaction) were monitored using enzyme concentrations at least three times below the measured Ki by following the breakdown of ^14C-oleamide and Ki's (standard deviations are provided in Supporting Information tables) were established as described (Dixon plot) (Boger, D. L.; Sato, H.; et al. Proc. Natl. Acad. Sci. U.S.A. 2000, 97, 5044-5049). Lineweaver-Burk analysis previously established reversible, competitive inhibition (Boger, D. L.; Miyauchi, H.; et al. J. Med. Chem. 2005, 48, 1849-1856).
# FAAH Inhibition. ^14C-labeled oleamide was prepared from ^14C-labeled oleic acid as described (Cravatt, B. F.; et al. Science 1995, 268, 1506-1509). The truncated rat FAAH (rFAAH) was expressed in E. coli and purified as described (Patricelli, M. P.; Lashuel, H. A.; et al. Biochemistry 1998, 37, 15177-15187). The purified recombinant rFAAH was used in the inhibition assays unless otherwise indicated. The full-length human FAAH (hFAAH) was expressed in COS-7 cells as described (Giang, D. K.; Cravatt, B. F. Proc. Natl. Acad. Sci. U.S.A. 1997, 94, 2238-2242), and the lysate of hFAAH-transfected COS-7 cells was used in the inhibition assays where explicitly indicated.
# The inhibition assays were performed as described (Cravatt, B. F.; et al. Science 1995, 268, 1506-1509). In brief, the enzyme reaction was initiated by mixing 1 nM of rFAAH (800, 500, or 200 pM rFAAH for inhibitors with Ki≦1-2 nM) with 10 μM of ^14C-labeled oleamide in 500 μL of reaction buffer (125 mM TrisCl, 1 mM EDTA, 0.2% glycerol, 0.02% Triton X-100, 0.4 mM Hepes, pH 9.0) at room temperature in the presence of three different concentrations of inhibitor. The enzyme reaction was terminated by transferring 20 μL of the reaction mixture to 500 μL of 0.1 N HCl at three different time points. The ^14C-labeled oleamide (substrate) and oleic acid (product) were extracted with EtOAc and analyzed by TLC as detailed (Cravatt, B. F.; et al. Science 1995, 268, 1506-1509). The Ki of the inhibitor was calculated using a Dixon plot as described (standard deviations are provided in the Supporting Information tables) (Boger, D. L.; Sato, H.; et al. Proc. Natl. Acad. Sci. U.S.A. 2000, 97, 5044-5049). Lineweaver-Burk analysis was performed as described confirming competitive, reversible inhibition (Boger, D. L.; Miyauchi, H.; et al. J. Med. Chem. 2005, 48, 1849-1856).
row,Structure (SMILES),FAAH inhibitory potency (in words)
1,"O=C(CCCCCCc1cccs1)c1ncc(-c2ccccn2)o1 [5a, 1-Oxo-1-[5-(2-pyridyl)oxazol-2-yl]-7-(2-thienyl)heptane]",effective inhibitors
2,"O=C(CCCCCCc1ccsc1)c1ncc(-c2ccccn2)o1 [5b, 1-Oxo-1-[5-(2-pyridyl)oxazol-2-yl]-7-(3-thienyl)heptane]",effective inhibitors
3,"O=C(CCCCCCc1cccc2ccccc12)c1ncc(-c2ccccn2)o1 [5c, 1-Oxo-1-[5-(2-pyridyl)oxazol-2-yl]-7-(1-naphthyl)heptane]",effective inhibitors
4,"O=C(CCCCCCc1ccc2ccccc2c1)c1ncc(-c2ccccn2)o1 [5d, 1-Oxo-1-[5-(2-pyridyl)oxazol-2-yl]-7-(2-naphthyl)heptane]",effective inhibitors
5,"CS(=O)(=O)c1cccc(CCCCCCC(=O)c2ncc(-c3ccccn3)o2)c1 [5ll, 1-Oxo-1-[5-(2-pyridyl)oxazol-2-yl]-7-(3-(methylsulfonyl)phenyl)heptane]",significant potency
6,"CCCCCCc1ccc(CCCCCCC(=O)c2ncc(-c3ccccn3)o2)cc1 [5nn, 1-Oxo-1-[5-(2-pyridyl)oxazol-2-yl]-7-(4-hexylphenyl)heptane]",significant potency
7,"CCCCCCc1cccc(CCCCCCC(=O)c2ncc(-c3ccccn3)o2)c1 [5oo, 1-Oxo-1-[5-(2-pyridyl)oxazol-2-yl]-7-(3-hexylphenyl)heptane]",less effective
8,"O=C(CSCCCCc1ccccc1)c1ncc(-c2ccccn2)o1 [12b, 2-(4-Phenylbutylthio)-1-(5-(pyridin-2-yl)oxazol-2-yl)ethanone]",significant potency
9,"O=C(CS(=O)(=O)CCCCc1ccccc1)c1ncc(-c2ccccn2)o1 [12d, 2-(4-Phenylbutylsulfonyl)-1-(5-(pyridin-2-yl)oxazol-2-yl)ethanone]",significant loss in potency
10,"O=C(CCCCSCc1ccccc1)c1ncc(-c2ccccn2)o1 [12k, 5-(Benzylthio)-1-(5-(pyridin-2-yl)oxazol-2-yl)pentan-1-one]",significant potency
11,"O=C(CCCCCSc1ccccc1)c1ncc(-c2ccccn2)o1 [12p, 6-(Phenylthio)-1-(5-(pyridin-2-yl)oxazol-2-yl)hexan-1-one]",significant potency
12,"O=C(CCC(=O)c1ncc(-c2ccccn2)o1)NCCc1ccccc1 [13a, 4-Oxo-N-phenethyl-4-(5-(pyridin-2-yl)oxazol-2-yl)butanamide]",lower ability to inhibit FAAH
13,"O=C(CCC(O)CCCc1ccccc1)c1ncc(-c2ccccn2)o1 (stereo not drawn) [13f, 4-Hydroxy-7-phenyl-1-(5-(pyridin-2-yl)oxazol-2-yl)heptan-1-one]",lower potency
14,"O=C(c1ncc(-c2ccccn2)o1)C1CC1 [14d, Cyclopropyl(5-(pyridin-2-yl)oxazol-2-yl)methanone]",loss of activity
15,"O=C(c1ncc(-c2ccccn2)o1)C1CCCC1 [14e, Cyclopentyl(5-(pyridin-2-yl)oxazol-2-yl)methanone]",loss of activity
16,"O=C(CCl)c1ncc(-c2ccccn2)o1 [14f, 2-Chloro-1-(5-(pyridin-2-yl)oxazol-2-yl)ethanone]",submicromolar inhibitor of FAAH
17,"O=C(CCCCc1ccccc1)CC(=O)c1ncc(-c2ccccn2)o1 [14g, 7-Phenyl-1-(5-(pyridin-2-yl)oxazol-2-yl)heptane-1,3-dione]",significant loss of inhibitory potency
18,"OC(CCCCc1ccccc1)CC(O)c1ncc(-c2ccccn2)o1 (stereo not drawn) [14h, 7-Phenyl-1-(5-(pyridin-2-yl)oxazol-2-yl)heptane-1,3-diol]",substantial loss in inhibitory potency
19,"CN(CCCCc1ccccc1)CC(O)c1ncc(-c2ccccn2)o1 (stereo not drawn) [14i, 2-(Methyl(4-phenylbutyl)amino)-1-(5-(pyridin-2-yl)oxazol-2-yl)ethanol]",substantial loss in inhibitory potency

# Same assay, conditions: rat FAAH, o- and p-methylsulfone vs 5ll
row,Structure (SMILES),fold less effective than m-methylsulfone 5ll
1,"CS(=O)(=O)c1ccccc1CCCCCCC(=O)c1ncc(-c2ccccn2)o1 [5kk, 1-Oxo-1-[5-(2-pyridyl)oxazol-2-yl]-7-(2-(methylsulfonyl)phenyl)heptane]",approximately 10 fold
2,"CS(=O)(=O)c1ccc(CCCCCCC(=O)c2ncc(-c3ccccn3)o2)cc1 [5mm, 1-Oxo-1-[5-(2-pyridyl)oxazol-2-yl]-7-(4-(methylsulfonyl)phenyl)heptane]",approximately 10 fold

# Same assay, conditions: recombinant rat FAAH, 14C-oleamide, pH 9.0, 20-23 °C
row,Structure (SMILES),Ki [nM]
1,"O=C(CCCCCCc1cccc2ccccc12)c1ncc(-c2ccccn2)o1 [5c, 1-Oxo-1-[5-(2-pyridyl)oxazol-2-yl]-7-(1-naphthyl)heptane]",2.6
2,"O=C(CCCCCCc1cccc(Cl)c1)c1ncc(-c2ccccn2)o1 [5hh, 1-Oxo-1-[5-(2-pyridyl)oxazol-2-yl]-7-(3-chlorophenyl)heptane]",0.9
3,"O=C(CCCCCSc1ccccc1)c1ncc(-c2ccccn2)o1 [12p, 6-(Phenylthio)-1-(5-(pyridin-2-yl)oxazol-2-yl)hexan-1-one]",3
4,"O=C(c1ncc(-c2ccccn2)o1)C(O)CCCCCc1ccccc1 (stereo not drawn) [13d, 2-Hydroxy-7-phenyl-1-(5-(pyridin-2-yl)oxazol-2-yl)heptan-1-one]",8

# Tested on: not given
# Test: not given
# Conditions: not given
row,Structure (SMILES),melting point [°C]
1,"O=C(CCCCC#Cc1cccc(Cl)c1)c1ncc(-c2ccccn2)o1 [4hh, 1-Oxo-1-[5-(2-pyridyl)oxazol-2-yl]-7-(3-chlorophenyl)hept-6-yne]",50 to 51
2,"O=C(CCCCCCc1cccc(Cl)c1)c1ncc(-c2ccccn2)o1 [5hh, 1-Oxo-1-[5-(2-pyridyl)oxazol-2-yl]-7-(3-chlorophenyl)heptane]",91 to 92
